What was measured:
[1] = Test on the solubility in media at different pH; type: physicochemical
Procedure: Test on the Solubility in Media at Different pH
About 200 mg of solid powders of Preparation Example 10 and Preparation Example 15 were added in a 500 mL phosphate buffered solution at different pH values (50 mmol/L, pH 5.5, pH 6.5, pH 7.4, and pH 8.0) respectively, placed into a dissolution tester, kept at a constant temperature of 37° C., and paddle stirred at 50 rpm for 72 hours. Appropriate amounts of the suspension were taken out at 15 min, 30 min, 45 min, 1 h, 2 h, 4 h, 6 h, 8 h, 24 h, 32 h, 48 h, and 72 h respectively, and centrifuged immediately (15000 rpm, 5 min). The supernatant was diluted with methanol by a factor of two. The concentration of the drug dissolved in the PB buffer solution was determined with an HPLC-b method.

[2] = Test on the solubility in a simulated body fluid; type: physicochemical
Procedure: Test on the Solubility in a Simulated Body Fluid
The concentration of the drug dissolved in the PBS buffered solution was determined with an HPLC-a method.

[3] = phosphate buffer pH 5.5, 37° C., 0.25 h
[4] = phosphate buffer pH 5.5, 37° C., 0.5 h
[5] = phosphate buffer pH 5.5, 37° C., 0.75 h
[6] = phosphate buffer pH 5.5, 37° C., 1 h
[7] = phosphate buffer pH 5.5, 37° C., 2 h
[8] = phosphate buffer pH 5.5, 37° C., 4 h
[9] = phosphate buffer pH 5.5, 37° C., 6 h
[10] = phosphate buffer pH 5.5, 37° C., 8 h
[11] = phosphate buffer pH 5.5, 37° C., 24 h
[12] = phosphate buffer pH 5.5, 37° C., 32 h
[13] = phosphate buffer pH 5.5, 37° C., 48 h
[14] = phosphate buffer pH 5.5, 37° C., 72 h
[15] = phosphate buffer pH 6.5, 37° C., 0.25 h
[16] = phosphate buffer pH 6.5, 37° C., 0.5 h
[17] = phosphate buffer pH 6.5, 37° C., 0.75 h
[18] = phosphate buffer pH 6.5, 37° C., 1 h
[19] = phosphate buffer pH 6.5, 37° C., 2 h
[20] = phosphate buffer pH 6.5, 37° C., 4 h
[21] = phosphate buffer pH 6.5, 37° C., 6 h
[22] = phosphate buffer pH 6.5, 37° C., 8 h
[23] = phosphate buffer pH 6.5, 37° C., 24 h
[24] = phosphate buffer pH 6.5, 37° C., 32 h
[25] = phosphate buffer pH 6.5, 37° C., 48 h
[26] = phosphate buffer pH 6.5, 37° C., 72 h
[27] = phosphate buffer pH 7.4, 37° C., 0.25 h
[28] = phosphate buffer pH 7.4, 37° C., 0.5 h
[29] = phosphate buffer pH 7.4, 37° C., 0.75 h
[30] = phosphate buffer pH 7.4, 37° C., 1 h
[31] = phosphate buffer pH 7.4, 37° C., 2 h
[32] = phosphate buffer pH 7.4, 37° C., 4 h
[33] = phosphate buffer pH 7.4, 37° C., 6 h
[34] = phosphate buffer pH 7.4, 37° C., 8 h
[35] = phosphate buffer pH 7.4, 37° C., 24 h
[36] = phosphate buffer pH 7.4, 37° C., 32 h
[37] = phosphate buffer pH 7.4, 37° C., 48 h
[38] = phosphate buffer pH 7.4, 37° C., 72 h
[39] = phosphate buffer pH 8.0, 37° C., 0.25 h
[40] = phosphate buffer pH 8.0, 37° C., 0.5 h
[41] = phosphate buffer pH 8.0, 37° C., 0.75 h
[42] = phosphate buffer pH 8.0, 37° C., 1 h
[43] = phosphate buffer pH 8.0, 37° C., 2 h
[44] = phosphate buffer pH 8.0, 37° C., 4 h
[45] = phosphate buffer pH 8.0, 37° C., 6 h
[46] = phosphate buffer pH 8.0, 37° C., 8 h
[47] = phosphate buffer pH 8.0, 37° C., 24 h
[48] = phosphate buffer pH 8.0, 37° C., 32 h
[49] = phosphate buffer pH 8.0, 37° C., 48 h
[50] = phosphate buffer pH 8.0, 37° C., 72 h
[51] = 0.01 M PBS pH 7.4, 37° C., 5 min
[52] = 0.01 M PBS pH 7.4, 37° C., 15 min
[53] = 0.01 M PBS pH 7.4, 37° C., 30 min
[54] = 0.01 M PBS pH 7.4, 37° C., 24 h

CCCCN1CCCCC1C(=O)Nc1c(C)cccc1C.CCCCN1CCCCC1C(=O)Nc1c(C)cccc1C.O=C(O)c1cc2ccccc2c(Cc2c(O)c(C(=O)O)cc3ccccc23)c1O [Preparation Example 15, bis(bupivacaine) pamoate]
molar ratio of the solubility (bupivacaine to pamoic acid) ([1]; media at pH 5.5, pH 6.5, pH 7.4 and pH 8.0, remained for at least 72 hours): around 2.0 | Molar concentration of Bupivacaine [1, 3]: 0.050 mmol/L | Molar concentration of Pamoic acid [1, 3]: 0.020 mmol/L | Molar concentration of Bupivacaine [1, 4]: 0.070 mmol/L | Molar concentration of Pamoic acid [1, 4]: 0.034 mmol/L | Molar concentration of Bupivacaine [1, 5]: 0.140 mmol/L | Molar concentration of Pamoic acid [1, 5]: 0.070 mmol/L | Molar concentration of Bupivacaine [1, 6]: 0.196 mmol/L | Molar concentration of Pamoic acid [1, 6]: 0.092 mmol/L | Molar concentration of Bupivacaine [1, 7]: 0.198 mmol/L | Molar concentration of Pamoic acid [1, 7]: 0.094 mmol/L | Molar concentration of Bupivacaine [1, 8]: 0.198 mmol/L | Molar concentration of Pamoic acid [1, 8]: 0.092 mmol/L | Molar concentration of Bupivacaine [1, 9]: 0.198 mmol/L | Molar concentration of Pamoic acid [1, 9]: 0.094 mmol/L | Molar concentration of Bupivacaine [1, 10]: 0.198 mmol/L | Molar concentration of Pamoic acid [1, 10]: 0.092 mmol/L | Molar concentration of Bupivacaine [1, 11]: 0.192 mmol/L | Molar concentration of Pamoic acid [1, 11]: 0.088 mmol/L | Molar concentration of Bupivacaine [1, 12]: 0.196 mmol/L | Molar concentration of Pamoic acid [1, 12]: 0.092 mmol/L | Molar concentration of Bupivacaine [1, 13]: 0.198 mmol/L | Molar concentration of Pamoic acid [1, 13]: 0.092 mmol/L | Molar concentration of Bupivacaine [1, 14]: 0.190 mmol/L | Molar concentration of Pamoic acid [1, 14]: 0.084 mmol/L | Molar concentration of Bupivacaine [1, 15]: 0.046 mmol/L | Molar concentration of Pamoic acid [1, 15]: 0.024 mmol/L | Molar concentration of Bupivacaine [1, 16]: 0.076 mmol/L | Molar concentration of Pamoic acid [1, 16]: 0.038 mmol/L | Molar concentration of Bupivacaine [1, 17]: 0.138 mmol/L | Molar concentration of Pamoic acid [1, 17]: 0.076 mmol/L | Molar concentration of Bupivacaine [1, 18]: 0.202 mmol/L | Molar concentration of Pamoic acid [1, 18]: 0.106 mmol/L | Molar concentration of Bupivacaine [1, 19]: 0.204 mmol/L | Molar concentration of Pamoic acid [1, 19]: 0.108 mmol/L | Molar concentration of Bupivacaine [1, 20]: 0.202 mmol/L | Molar concentration of Pamoic acid [1, 20]: 0.106 mmol/L | Molar concentration of Bupivacaine [1, 21]: 0.198 mmol/L | Molar concentration of Pamoic acid [1, 21]: 0.104 mmol/L | Molar concentration of Bupivacaine [1, 22]: 0.198 mmol/L | Molar concentration of Pamoic acid [1, 22]: 0.106 mmol/L | Molar concentration of Bupivacaine [1, 23]: 0.198 mmol/L | Molar concentration of Pamoic acid [1, 23]: 0.106 mmol/L | Molar concentration of Bupivacaine [1, 24]: 0.202 mmol/L | Molar concentration of Pamoic acid [1, 24]: 0.106 mmol/L | Molar concentration of Bupivacaine [1, 25]: 0.200 mmol/L | Molar concentration of Pamoic acid [1, 25]: 0.106 mmol/L | Molar concentration of Bupivacaine [1, 26]: 0.196 mmol/L | Molar concentration of Pamoic acid [1, 26]: 0.100 mmol/L | Molar concentration of Bupivacaine [1, 27]: 0.038 mmol/L | Molar concentration of Pamoic acid [1, 27]: 0.020 mmol/L | Molar concentration of Bupivacaine [1, 28]: 0.080 mmol/L | Molar concentration of Pamoic acid [1, 28]: 0.042 mmol/L | Molar concentration of Bupivacaine [1, 29]: 0.192 mmol/L | Molar concentration of Pamoic acid [1, 29]: 0.100 mmol/L | Molar concentration of Bupivacaine [1, 30]: 0.240 mmol/L | Molar concentration of Pamoic acid [1, 30]: 0.134 mmol/L | Molar concentration of Bupivacaine [1, 31]: 0.246 mmol/L | Molar concentration of Pamoic acid [1, 31]: 0.134 mmol/L | Molar concentration of Bupivacaine [1, 32]: 0.242 mmol/L | Molar concentration of Pamoic acid [1, 32]: 0.134 mmol/L | Molar concentration of Bupivacaine [1, 33]: 0.234 mmol/L | Molar concentration of Pamoic acid [1, 33]: 0.13 mmol/L | Molar concentration of Bupivacaine [1, 34]: 0.232 mmol/L | Molar concentration of Pamoic acid [1, 34]: 0.128 mmol/L | Molar concentration of Bupivacaine [1, 35]: 0.226 mmol/L | Molar concentration of Pamoic acid [1, 35]: 0.124 mmol/L | Molar concentration of Bupivacaine [1, 36]: 0.226 mmol/L | Molar concentration of Pamoic acid [1, 36]: 0.124 mmol/L | Molar concentration of Bupivacaine [1, 37]: 0.230 mmol/L | Molar concentration of Pamoic acid [1, 37]: 0.126 mmol/L | Molar concentration of Bupivacaine [1, 38]: 0.224 mmol/L | Molar concentration of Pamoic acid [1, 38]: 0.120 mmol/L | Molar concentration of Bupivacaine [1, 39]: 0.036 mmol/L | Molar concentration of Pamoic acid [1, 39]: 0.020 mmol/L | Molar concentration of Bupivacaine [1, 40]: 0.092 mmol/L | Molar concentration of Pamoic acid [1, 40]: 0.050 mmol/L | Molar concentration of Bupivacaine [1, 41]: 0.252 mmol/L | Molar concentration of Pamoic acid [1, 41]: 0.138 mmol/L | Molar concentration of Bupivacaine [1, 42]: 0.328 mmol/L | Molar concentration of Pamoic acid [1, 42]: 0.182 mmol/L | Molar concentration of Bupivacaine [1, 43]: 0.336 mmol/L | Molar concentration of Pamoic acid [1, 43]: 0.186 mmol/L | Molar concentration of Bupivacaine [1, 44]: 0.338 mmol/L | Molar concentration of Pamoic acid [1, 44]: 0.192 mmol/L | Molar concentration of Bupivacaine [1, 45]: 0.338 mmol/L | Molar concentration of Pamoic acid [1, 45]: 0.190 mmol/L | Molar concentration of Bupivacaine [1, 46]: 0.334 mmol/L | Molar concentration of Pamoic acid [1, 46]: 0.186 mmol/L | Molar concentration of Bupivacaine [1, 47]: 0.326 mmol/L | Molar concentration of Pamoic acid [1, 47]: 0.182 mmol/L | Molar concentration of Bupivacaine [1, 48]: 0.328 mmol/L | Molar concentration of Pamoic acid [1, 48]: 0.186 mmol/L | Molar concentration of Bupivacaine [1, 49]: 0.336 mmol/L | Molar concentration of Pamoic acid [1, 49]: 0.186 mmol/L | Molar concentration of Bupivacaine [1, 50]: 0.336 mmol/L | Molar concentration of Pamoic acid [1, 50]: 0.184 mmol/L | Compound concentration: Bupivacaine [2, 51]: 112.8 µM | Compound concentration: Pamoic acid [2, 51]: 57.2 µM | Compound concentration: Bupivacaine [2, 52]: 153.8 µM | Compound concentration: Pamoic acid [2, 52]: 77.9 µM | Compound concentration: Bupivacaine [2, 53]: 239.4 µM | Compound concentration: Pamoic acid [2, 53]: 120.2 µM | Compound concentration: Bupivacaine ([2]; 0.01 M PBS pH 7.4, 37° C., 1 h): 257.4 µM | Compound concentration: Pamoic acid ([2]; 0.01 M PBS pH 7.4, 37° C., 1 h): 127.8 µM | Compound concentration: Bupivacaine ([2]; 0.01 M PBS pH 7.4, 37° C., 2 h): 287.5 µM | Compound concentration: Pamoic acid ([2]; 0.01 M PBS pH 7.4, 37° C., 2 h): 141.5 µM | Compound concentration: Bupivacaine ([2]; 0.01 M PBS pH 7.4, 37° C., 6 h): 290.1 µM | Compound concentration: Pamoic acid ([2]; 0.01 M PBS pH 7.4, 37° C., 6 h): 146.7 µM | Compound concentration: Bupivacaine [2, 54]: 290.3 µM | Compound concentration: Pamoic acid [2, 54]: 143 µM | stability of the suspension (ratio between acid radical and basic group) ([2]; simulated body fluid): stable | solubility ([2]; simulated body fluid, 0.01 M PBS pH 7.4, 37° C.): about 0.3 mM

— patent US11084790B2, “Insoluble complex or solvate thereof, pharmaceutical composition and use thereof” (Fruithy Holdings Limited, priority 2017, dated 2021)
